Experiments:
[1] = system: human tumor cell lines; experiment: Cytotoxicity / anti-tumor activity on panel of tumor cell lines; assay type: cell-based
Procedure: Each of the extracts was then screened against a panel of human tumor and non-tumor cells including human ovarian cancer cell lines, T-leukemic cells, human epidermoid cells, human breast cancer cells, human prostate cancer cells, human foreskin fibroblast cells, human endothelial cells, and human renal cancer cells. The cells were first plated in 96-well plates for 18-24 hours at 37° C. The cells were then exposed to varying concentrations of the plant extracts, and incubated for 72 hours at 37° C., and stained with either MTT (3-(4,5-dimethylethiazol-2-yl)-2,5-diphenyl tetrazolium bromide; Sigma Chemical Co.) for 4 hours or crystal violet (Sigma Chemical Co.) for 20 minutes at room temperature. The MTT plates received lysis buffer (20% sodium dodecyl sulfate in 50% DMF) and were incubated for an additional 6 hours before taking an OD reading at 570 nm. The crystal violet plates were washed, dye was extracted for 3-4 hours with Sorenson's buffer (0.1 M sodium citrate (pH 4.2), 50% v/v ethanol), and the plates were read at 570-600 nm (Mujoo et al., 1996). Cytotoxicity of the screened extracts was indicated by comparing the OD readings between the treated media alone and the cells treated with the plant extract. Percent cytotoxicity was calculated by 100-% of control, where % of control =[((OD of cells treated with plant extract (treated sample))/(OD of cells exposed to media alone (untreated sample)))×100].
The following human cancer cell lines were obtained from American Type Tissue Culture Collection (ATCC, Rockville, Md.). SK-OV-3 and OVCAR-3 (ovarian), Jurkat (T-cell leukemia), U-937 (histiocytic lymphoma), MDA-MB-468, MDA-MB-453, MDA-MB-435, SK-BP-3, MCF-7, MDA-MB-231, BT-20 (breast), LNCaP, PC-3, DU145 (prostate), 769-P, 786-O A498 (renal) and PANC-1 (pancreatic). HEY and Dov-13 (ovarian), cell lines were obtained from M. D. Anderson Cancer Center. The following non-transformed human cell lines MCF-10A and 10F (breast epithelium) were obtained from M. D. Anderson Cancer Center. Hs 27 (human foreskin fibroblasts) and L929 (mouse fibroblasts) were obtained from ATCC. […]

[2] = system: Jurkat cells; experiment: Mitochondrial membrane potential (DiOC6); assay type: cell-based, human; conditions: 2 μg/ml
Procedure: Measurement of mitochondrial membrane potential (Δψm). Mitochondrial Δψm was measured as described by Zamzami, et al., 1995. After treatment with F094, avicin D, or avicin G (2 μg/ml) at 37° C, Jurkat cells were incubated with 80 nM of DiOC6 for 15 minutes at room temperature. They were then analyzed on a cytofluorometer (Facscalibar, excitation: 488 nm and emission: 552 nm).

[3] = Biological assays of purified compounds (not specified)
[4] = system: cytochrome c in Jurkat cells; experiment: Cytochrome c release from mitochondria (western blot); assay type: cell-based, human; conditions: 2 μg/ml
Procedure: Release of cytochrome c from mitochondria in response to treatment with F035 was detected by western blotting. Jurkat cells (10 ×10^6) were treated with 2 μg/ml of F035 for 4 and 6 h at 37° C. Cell pellets were washed in sucrose buffer (0.25M sucrose, 30 mM Tris, pH 7.7, 1 mM EDTA). To the cell pellets added 20 μl of sucrose buffer containing 1 μM PMSF, 1 μg/ml leupeptin, 1 μg/ml pepstatin and 1 μg/ml aprotinin. Cells were disrupted by douncing 120 times in a 0.3 ml Kontes douncer with a B pestle (Kontes Glass company). Cellular protein (60 μg) was resolved on a 15% SDS-polyacrylamide gel and electrotransferred onto a nitrocellulose membrane. The membrane was probed first with monoclonal anti-cytochrome c antibody (PharMingen) and then with anti-mouse antibody conjugated to horse radish peroxidase (HRPO). Protein bands were detected by chemiluminescence (ECL, Amersham).
Detection of Cytochrome c Release from Mitochondria. Release of cytochrome c from mitochondria was detected by Western blot analysis. Jurkat cells (1×10^7) were treated with F094, avicin D, or avicin G (2 μg/ml) at 37° C. After washing the cell pellets in sucrose buffer (0.25 M sucrose, 30 mM Tris, pH 7.7, 1 mM EDTA), they were resuspended in 20 μl of sucrose buffer containing 1 μM PMSF, 1 μg/ml leupeptin, 1 μg/ml pepstatin, and 1 μg/ml aprotinin. Cells were disrupted by douncing 120 times in a 0.3 ml Kontes douncer (Kontes Glass Company, Vineland, N.J.) with a B pestle. Cellular protein (50 μg) was resolved on a 15% SDS-polyacrylamide gel and electrotransferred onto a nitrocellulose membrane. The membrane was probed with monoclonal anti-cytochrome c antibody (Pharmingen, San Diego, Calif.) followed with anti-mouse antibody conjugated to horseradish peroxidase (HRPO). Protein bands were detected by chemiluminescence (ECL, Amersham).

Compound	cytotoxicity compared with F035 and D1 ([1]; most of the cells tested (Jurkat, C-2, 769-P, MDA-MB-231, MDA-MB-453))	mitochondrial membrane potential (Δψm) ([2]; 16 hours)	mitochondrial membrane potential (Δψm) ([2]; up to 8 hours)	biological activity relative to other compounds [3]	increase in cytosolic cytochrome c ([4]; 30 minutes post-treatment)	increase in cytosolic cytochrome c ([4]; 4 hours post-treatment)	IC50 compared with F035 ([1]; 769-P, MDA-MB-453, MDA-MB-231)	potency compared with F035 ([1]; C-2 (HEY Variant) and Jurkat cells)
C=C[C@](C)(O)CC/C=C(\C)C(=O)O[C@H]1[C@H](O)[C@@H](O)[C@H](O[C@@](C)(C=C)CC/C=C(\CO)C(=O)O[C@H]2C[C@]3(C(=O)O[C@@H]4O[C@H](CO)[C@@H](O)[C@H](O)[C@H]4O[C@@H]4O[C@@H](C)[C@H](O[C@@H]5O[C@@H](CO)[C@H](O)[C@H]5O)[C@@H](O[C@@H]5O[C@H](CO)[C@@H](O)[C@H](O)[C@H]5O)[C@H]4O)[C@H](O)C[C@]4(C)C(=CC[C@@H]5[C@@]6(C)CC[C@H](O[C@@H]7O[C@H](CO[C@@H]8O[C@H](C)[C@H](O)[C@H](O)[C@H]8O[C@@H]8OC[C@@H](O)[C@H](O)[C@H]8O)[C@@H](O)[C@H](O)[C@H]7NC(C)=O)C(C)(C)[C@@H]6CC[C@]54C)[C@@H]3CC2(C)C)O[C@@H]1C [Fraction G1]	significantly more cytotoxic than F035 and D1	significant drop	did not produce any significant changes	more biologically active than D1	3.5 fold	8.4 fold		
C=C[C@](C)(O)CC/C=C(\CO)C(=O)O[C@H]1[C@H](O)[C@@H](O)[C@H](O[C@@](C)(C=C)CC/C=C(\CO)C(=O)O[C@H]2C[C@]3(C(=O)O[C@@H]4O[C@H](CO)[C@@H](O)[C@H](O)[C@H]4O[C@@H]4O[C@@H](C)[C@H](O[C@@H]5O[C@@H](CO)[C@H](O)[C@H]5O)[C@@H](O[C@@H]5O[C@H](CO)[C@@H](O)[C@H](O)[C@H]5O)[C@H]4O)[C@H](O)C[C@]4(C)C(=CC[C@@H]5[C@@]6(C)CC[C@H](O[C@@H]7O[C@H](CO[C@@H]8O[C@H](C)[C@H](O)[C@H](O)[C@H]8O[C@@H]8OC[C@@H](O)[C@H](O)[C@H]8O)[C@@H](O)[C@H](O)[C@H]7NC(C)=O)C(C)(C)[C@@H]6CC[C@]54C)[C@@H]3CC2(C)C)O[C@@H]1C [Fraction D1]		significant drop	did not produce any significant changes	considerable biological activity	1.5 fold	3 fold	comparable to F035	twice as potent as F035
